Experimental findings from BindingDB's records for doi:10.1016/s0960-894x(99)00213-9 (Cardiff University, 1999) are described below.

Molecules are shown by their SMILES.

Assay [1] concerns the target Dihydrofolate reductase (Trypanosoma cruzi). Briefly: Inhibitory activity against Trypanosoma cruzi dihydrofolate reductase.
The target is the same in assay [2]. Described as above. This is another data set of the same source.

Usually Ki stands for the dissociation constant of the complex between target and ligand, obtained from inhibition or displacement. A high value points to a looser hold on the target. `CCOC(=O)CCCCN(Cc1cnc2nc(N)nc(N)c2n1)c1ccc(C(=O)NC(CCC(=O)OCC)C(=O)OCC)cc1` (centres undefined) [2-{4-[(2,4-Diamino-pteridin-6-ylmethyl)-(4-ethoxycarbonyl-butyl)-amino]-benzoylamino}-pentanedioic acid diethyl ester] yielded a Ki in assay [1] of 46 nM.

In the case of `CCOC(=O)CCCCCN(Cc1cnc2nc(N)nc(N)c2n1)c1ccc(C(=O)NC(CCC(=O)OCC)C(=O)OCC)cc1` (centres undefined) [2-{4-[(2,4-Diamino-pteridin-6-ylmethyl)-(5-ethoxycarbonyl-pentyl)-amino]-benzoylamino}-pentanedioic acid diethyl ester], affinity in assay [1] was put at a Ki of 56 nM.

Regarding `Nc1nc(N)c2nc(CN(CCCCC(=O)O)c3ccc(C(=O)NC(CCC(=O)O)C(=O)O)cc3)cnc2n1` (centres undefined) [2-{4-[(4-Carboxy-butyl)-(2,4-diamino-pteridin-6-ylmethyl)-amino]-benzoylamino}-pentanedioic acid], the Ki in assay [1] worked out at 0.131 nM.

In assay [2], `Nc1nc(N)c2nc(CN(CCCCCC(=O)O)c3ccc(C(=O)NC(CCC(=O)O)C(=O)O)cc3)cnc2n1` (centres undefined) [2-{4-[(5-Carboxy-pentyl)-(2,4-diamino-pteridin-6-ylmethyl)-amino]-benzoylamino}-pentanedioic acid] showed a Ki of 0.183 nM.
